Source: patent EP0489933A1, “BILE ALCOHOL AND DRUG CONTAINING THE SAME AS ACTIVE INGREDIENT” (TSUMURA CO., LTD., priority 1990, dated 1992)
Read-outs that look alike come from different tables or passages of the source.

Legend:
[1] = tested on: platelet rich plasma (PRP); assay: Platelet aggregation in platelet rich plasma after oral administration; assay type: in vivo, male rat; conditions: 30 mg/kg, p.o., blood 90 minutes after administration
Description: Each drug to be tested was orally administered to each male rat which has been subjected to fasting treatment for 18 to 24 hours. After 90 minutes of the administration, median incision ventrotomy was carried out under ether anesthesia to collect 9 volumes of blood using a syringe filled with 1 volume of 3.8% sodium citrate solution (3.8% sodium citrate solution:blood = 1:9). After thorough mixing, the thus prepared mixture was centrifuged at 800 rpm for 10 minutes at room temperature to collect the resulting supernatant fluid as platelet rich plasma (PRP). The residual portion was centrifuged at 3,000 rpm for 15 minutes at room temperature to collect the resulting supernatant fluid as platelet poor plasma (PPP). The PRP was diluted with the PPP to adjust the number of platelets to 3×10⁵ ± 2×10⁴ cells/µl. A 450 µl portion of the thus diluted PRP was incubated at 37°C for 3 minutes and then mixed with 50 µl of 1×10⁻⁵ M of ADP or 1×10⁻⁵ g/ml of collagen. Thereafter, platelet aggregation test of the mixture was carried out using an aggregometer by measuring transmittance at 940 nm.

[2] = tested on: male mice of ddY line; assay type: in vivo; conditions: 50 mg/kg, i.p., 60 minutes before KCN (3.0 mg/kg) tail intravenous injection; for Survival Time ±S.E.: time to respiratory arrest
[3] = tested on: rats of diabetes mellitus; assay: Blood sugar level in streptozotocin-induced diabetes mellitus; assay type: in vivo, male rats of Wistar line; conditions: 50 mg/kg, i.o.; administered for 1 week beginning 1 week after streptozotocin (40 mg/kg); serum
Description: In this experiment, 8-week-old male rats of Wistar line (5 individuals per one group) were used after rearing them for 1 week with normal feed. Streptozotocin (40 mg/kg) was administered by tail intravenous injection to obtain rats of diabetes mellitus. Beginning after 1 week of the streptozotocin administration, oral administration of each test drug has been carried out for 1 week, followed by 24 hours of fasting. Thereafter, blood sample was collected from lower abdominal vena cava under anesthesia with Nembutal® (1 ml/kg, i.p.). Serum samples were prepared from the thus collected blood samples and checked for their blood sugar levels, with the results shown in Table 9.

[4] = tested on: male mice of ddY line; assay: Survival time under hypoxia (aeration with 96% nitrogen and 4% oxygen); assay type: in vivo; conditions: 50 mg/kg, i.p., 60 minutes before aeration with 96% nitrogen and 4% oxygen; time to respiratory arrest
Description: In this experiment, 5 to 6-week-old male mice of ddY line (10 individuals per one group) were used after fasting treatment for 24 hours.
Each compound obtained in the present invention was administered intraperitoneally. After 60 minutes of the administration, each mouse was transferred separately into a transparent vessel (capacity, 1,000 ml) equipped with an air exit, and the vessel was aerated with a mixed gas consisting of 96% nitrogen and 4% oxygen at an aeration rate of 5 ℓ/min.
All tested mice died within 180 seconds after the commencement of the gas mixture aeration. Terminal respiration was observed several times prior to the respiratory arrest. Survival time of the control group was roughly in the range of from 96 to 111 seconds.

[5] = tested on: male rats of SHR line; assay: Blood pressure in SHR rats; assay type: in vivo; conditions: 10 mg/kg, p.o., 2 weeks
Description: In this experiment, 12-week-old male rats of SHR line (5 to 6 individuals per one group) were used after rearing them for 1 week with normal feed. Oral administration of each test drug has been carried out for 2 weeks and then blood pressure (mmHg) was measured using a small animal hemomanometer (UR-1000).

[6] = tested on: male SD rats; assay: Thrombus formation in abdominal vena cava; assay type: in vivo; conditions: 30 mg/kg, p.o.; dry weight of thrombus
Description: Each of male SD rats of 130 to 210 g in body weight was anesthetized with Nembutal® (50 mg/kg, i.p.) and subjected to median incision ventrotomy to release about a 2 cm portion of abdominal vena cava below the renal vein. Blood flow of the thus released vena cava was temporarily stopped for 5 minutes with 8 hemostatic clips. After recirculating blood for 5 minutes by removing the hemostatic clips, […] was ligated at a position just below the renal vein and the median-incised part was sutured. Two hours after the ligature, the thus treated rat was again subjected to ventrotomy to excise abdominal vena cava. The thus excised blood vessel was cut open on a filter paper which had been moistened with physiological saline, in order to take out thrombus. The thrombus thus obtained was washed with physiological saline to remove adhered blood and the like substances and then dried at 80°C for 12 hours or longer to measure its dry weight. In this instance, each drug to be tested was orally administered 90 minutes before the clipping to examine its effect by single administration on the formation of thrombus. Separately from this, each test drug was administered to 6-week-old male SD rat continuously for 7 days, thrombus was prepared in the eighth day in the same manner as described above and dry weight of the thrombus was measured, in order to examine effect of the continuous 7 day administration on the thrombus formation.

[7] = tested on: red blood cells; assay: Inhibition of thermal hemolysis of red blood cells; assay type: cell-based, donryu rats; conditions: Rattus norvegicus, Erythrocyte, 20 min, 53°C for 20 minutes, read-out: Hemolysis Inhibition Ratio (%) against Control; for inhibition at 10 µM: 0.01 mM; for inhibition at 50 µM: 0.05 mM; for inhibition at 100 µM: 0.1 mM; for inhibition at 200 µM: 0.2 mM; for inhibition at 500 µM: 0.5 mM
Description: Blood was collected from donryu rats of 150 to 200 g in body weight and centrifuged at 1,500 rpm for 5 minutes to obtain red blood cells. The red blood cells thus collected were diluted with 0.15 M phosphate buffer (pH 7.4) to prepare a 5% red blood cell suspension. A 3.8 ml portion of the thus prepared suspension was mixed with 0.2 ml solution of each compound of the present invention which has been adjusted to each level of the concentrations as shown in the following table, and the resulting mixture was shaken thoroughly and incubated at 53°C for 20 minutes. Thereafter, the thus incubated mixture was cooled rapidly with tap water and centrifuged at 3,000 rpm for 15 minutes, and absorbance at 540 nm of the resulting supernatant fluid was measured using a spectrophotometer (Hitachi: Type 200-20). Inhibition rate (%) of red blood cell hemolysis at each concentration of the compound was calculated based on the absorbance, with the results shown in Table 8.

[8] = tested on: erythrocytes; assay: Erythrocyte deformability (filtration through 5 µm filter) after oral administration; assay type: in vivo, male rats of Wistar line; conditions: 30 mg/kg, p.o.; blood collected 90 minutes after administration; number of filtered erythrocytes
Description: In this experiment, 9-week-old male rats of Wistar line (5 to 6 individuals per one group) were used after rearing them for 1 week with normal feed. After 24 hours of fasting, each test drug was administered orally and, 90 minutes thereafter, blood sample was collected from lower abdominal vena cava of each rat under anesthesia with Nembutal® (1 ml/kg, i.p.). Blood samples obtained in this way were checked for their blood clotting time and erythrocyte deformability.
Measuring procedures are as follows.
Erythrocyte deformability ... The collected blood is extruded from a syringe with a constant flow of He in a holder equipped with a filter (5 µm). Weight of blood and the number of erythrocytes filtered during a fixed time are measured and the deformability is expressed based on the number of filtered erythrocytes. The results of these measurements are shown respectively in Tables 11 and 12.

Compound | Platelet Aggregation Ratio ±S.E. ([1]; ADP (1×10⁻⁵ M)) [%] | Platelet Aggregation Ratio ±S.E. ([1]; Collagen (1×10⁻⁵ g/ml)) [%] | Lethality (%) [2] [%] | Survival Time ±S.E. [2] [s] | Blood Sugar Level ± S.E. [3] [mg/dL] | Survival Time ±S.E. [4] [s] | Blood Pressure ±S.E. Average [5] [mmHg] | Blood Pressure ±S.E. Maximum [5] [mmHg] | Antithrombotic Effect: Thrombus weight ±S.E. [6] [mg] | inhibition at 10 µM [7] [%] | inhibition at 50 µM [7] [%] | inhibition at 100 µM [7] [%] | inhibition at 200 µM [7] [%] | inhibition at 500 µM [7] [%] | Erythrocyte Deformation: Erythrocyte counts ±S.E. [8] [× 10⁷]
C[C@H](CCCC(CO)CO)[C@H]1CC[C@H]2[C@@H]3[C@H](O)C[C@@H]4C[C@H](O)CC[C@]4(C)[C@H]3C[C@H](O)[C@]12C [Example 6, 3α,7α,12α,26,27-pentahydroxy-5β-cholestane] | 50.1 ± 2.33 | 42.3 ± 3.83 | 80 | 98.7 ± 8.81 | 138 ± 6.8 | 127.5 ± 9.26 | 131 ± 3.7 | 178 ± 3.3 | 13.5 ± 2.11 | 33 | 25 | 20 | 41 | 62 | 3.81 ± 0.44
C[C@H](CCCC(CO)CO)[C@H]1CC[C@H]2[C@@H]3[C@H](O)C[C@H]4C[C@H](O)CC[C@]4(C)[C@H]3C[C@H](O)[C@]12C [Example 7, 3α,7α,12α,26,27-pentahydroxy-5α-cholestane] | 44.3 ± 2.43 | 42.1 ± 3.15 | 80 | 89 ± 9.99 | 161 ± 5.5 | 121.5 ± 6.00 | 155 ± 3.6 | 198 ± 3.7 | 12.2 ± 1.33 | 32 | 21 | 31 | 61 | 70 | 4.02 ± 0.37
C[C@H](CC[C@H](O)C(CO)CO)[C@H]1CC[C@H]2[C@@H]3[C@H](O)C[C@@H]4C[C@H](O)CC[C@]4(C)[C@H]3C[C@H](O)[C@]12C [Example 8, (24S)-3α,7α,12α,24,26,27-hexahydroxy-5β-cholestane] | 41.8 ± 1.81 | 46.6 ± 3.81 | 70 | 123.0 ± 7.19 | 112 ± 8.4 | 144.8 ± 10.27 | 151 ± 9.5 | 180 ± 6.6 | 10.5 ± 1.43 | 27 | 20 | 37 | 50 | 60 | 4.53 ± 0.82
